Test results taken from US20220356174A1, “PYRIDIN-2-ONE COMPOUNDS USEFUL AS SMARCA2 ANTAGONISTS” (Epizyme, Inc., priority 2018, published 2022).
Read-outs that look alike come from different tables or passages of the source.

Experiments:
[1] = molecular target: FL-SMARCA4 (Homo sapiens, UniProt P51532); experiment: SMARCA4 ATPase activity assay (ADP-Glo, chicken mononucleosome substrate)
[2] = tested on: A549 cells; experiment: High-throughput proliferation (HTP) assay for A549 cells (CellTiter-Glo, 7 days); assay type: cell-based; conditions: Homo sapiens, 168 h, read-out: A549 SMARCA2 IC50
Method: Thawing vials: A549 cells (ATCC #CCL-185™) were thawed from a cryovial containing approximately 1.6×10^6 cells frozen in 70% F12K medium, 20% HI-FBS and 10% DMSO. Cells were thawed by submerging the bottom half of the vial in a 37° C. water bath and gently flicked until almost thawed. The cells were transferred into a 15 mL conical tube containing 9 mL of F12K medium+10% HI-FBS and then centrifuged at 200×g for 4 min before drawing off the media without disturbing the cell pellet in order to remove the DMSO. The cells were resuspended again in 15 mL of F12K fresh complete media+10% HI-FBS and grown up in a T75 flask at 37° C. with 5% CO2 Incubator. Viability was measured to obtain baseline.
Frozen stock vials preparation: The cell culture was transferred to a 50 mL conical tube, spun down to remove medium, and resuspended at 1-2×10^6 cells/mL in complete medium containing 10% DMSO. The culture was then stored for 24 hours at −80 degree C., (with the initial rate of freezing is −1 degree C. per minute in a freezing container), then transferred and stored in liquid nitrogen.
(§1) Routine subculture: Sub-confluent cultures (70-80%) were split every 4 days, seeding out at 1-2×10^6 cells/75 cm^2.
Day 0: Assay ready plates were prepared by dispensing 50 nL of compound or DMSO in the appropriate wells of 384-well white CulturPlates using Echo550. Using the Multiflo, A549 cells were plated at 50 μL/well in F12K complete media+10% HI-FBS+1% pen/strep at cell density determined [1,250 cells/mL (62.5 cells/well)] from growth curve.
Treated cells were incubated at 37° C., 5% CO2, relative humidity >90% for 7 days. CellTiter-Glo (CTG) ATP detection reagent was prepared according to manufacturer's specifications. Cell assay plates were removed from the incubator and brought to room temperature (RT). Using the MultiDrop liquid handler, 30 μL of CTG were added per well. Plates were placed on the multidrop dispenser shake for 5 seconds at room temperature (RT). Plates were incubated for 30 minutes in the dark at RT before measuring luminescence using the Envison2104.
Data analysis: Using the DMSO control wells as the 0% inhibition (high signal) control and the 10 μM Doxorubicin control wells as the 100% inhibition (low signal) control, percent inhibition EC50s (inflection point) and IC50 s were calculated for the compound dose responses.

[3] = tested on: H358 cells; experiment: High-throughput proliferation (HTP) assay for H358 cells (CellTiter-Glo, 7 days); assay type: cell-based; conditions: Homo sapiens, NCI-H358, 168 h, read-out: H358 SMARCA2 IC50
Method: Thawing vials: H358 cells (ATCC #CRL-5807™) were thawed from a cryovial containing approximately 1.6×10^6 cells frozen in 70% RPMI 1640 medium, 20% HI-FBS and 10% DMSO. Cells were thawed by submerging the bottom half of the vial in a 37° C. water bath and gently flicked until almost thawed. The cells were removed and transferred into a 15 mL conical tube containing 9 mL RPMI 1640 medium+10% HI-FBS and then centrifuged 200×g for 4 min before drawing off the media without disturbing the cell pellet to remove the DMSO. The cells were resuspended again in 15 mL of RPMI 1640 fresh complete media+10% HI-FBS and grown up in a T75 flask at 37° C. with 5% CO2 Incubator. Viability was measured to obtain baseline.
Preparing frozen stock vials: Cell density was counted in a stock flask. The culture was transferred to a 50 mL conical tube and spun down to remove medium, and then resuspend at 1-2×10^6 cells/mL in complete medium containing 10% DMSO and transferred to a 1 mL per vial.
as §1
Day 0: Assay ready plates were prepared by dispensing 50 nL of compound stock or DMSO in the appropriate wells of 384-well white CulturPlates using Echo550. Using the Multiflo, H358 cells at 50 μL/well were plated in RPMI 1640 complete media+10% HI-FBS+1% pen/strep at cell density determined [20,000 cells/mL (1,000 cells/well)] from growth curve. Treated cells were inclubated at 37° C., 5% CO2, relative humidity >90% for 7 days. CellTiter-Glo (CTG) ATP detection reagent was prepared according to manufacturer's specifications. Cell assay plates were removed from incubator and bring to room temperature (RT).
Using the MultiDrop liquid handler, 30 μL of CTG were added per well. Plates were placed on the multidrop dispenser shake for 5 seconds at RT. Plates were incubated for 30 minutes in the dark at RT before measuring luminescence using the Envison2104.
Data analysis: Using the DMSO control wells as the 0% inhibition (high signal) control and the 10 uM Doxorubicin control wells as the 100% inhibition (low signal) control, percent inhibition EC50s (inflection point) and IC50s were calculated for the compound dose responses.

[4] = molecular target: T1, FL-SMARCA2 (full-length human SMARCA2 isoform 1) (Homo sapiens, UniProt P51531); experiment: SMARCA2 ATPase activity assay (ADP-Glo, chicken mononucleosome substrate); assay type: biochemical; conditions: ATPase assay, enzyme 5 nM, ATP 250 uM, chicken mononucleosome 10 nM, 30 min preincubation
T1 construct: FLAG tag (YKDDDDK) (C); made in house; host or cells: Sf21 insect cells (baculovirus, pFastBacI)
T1 sequence (P51531 with tags, fused parts or gaps): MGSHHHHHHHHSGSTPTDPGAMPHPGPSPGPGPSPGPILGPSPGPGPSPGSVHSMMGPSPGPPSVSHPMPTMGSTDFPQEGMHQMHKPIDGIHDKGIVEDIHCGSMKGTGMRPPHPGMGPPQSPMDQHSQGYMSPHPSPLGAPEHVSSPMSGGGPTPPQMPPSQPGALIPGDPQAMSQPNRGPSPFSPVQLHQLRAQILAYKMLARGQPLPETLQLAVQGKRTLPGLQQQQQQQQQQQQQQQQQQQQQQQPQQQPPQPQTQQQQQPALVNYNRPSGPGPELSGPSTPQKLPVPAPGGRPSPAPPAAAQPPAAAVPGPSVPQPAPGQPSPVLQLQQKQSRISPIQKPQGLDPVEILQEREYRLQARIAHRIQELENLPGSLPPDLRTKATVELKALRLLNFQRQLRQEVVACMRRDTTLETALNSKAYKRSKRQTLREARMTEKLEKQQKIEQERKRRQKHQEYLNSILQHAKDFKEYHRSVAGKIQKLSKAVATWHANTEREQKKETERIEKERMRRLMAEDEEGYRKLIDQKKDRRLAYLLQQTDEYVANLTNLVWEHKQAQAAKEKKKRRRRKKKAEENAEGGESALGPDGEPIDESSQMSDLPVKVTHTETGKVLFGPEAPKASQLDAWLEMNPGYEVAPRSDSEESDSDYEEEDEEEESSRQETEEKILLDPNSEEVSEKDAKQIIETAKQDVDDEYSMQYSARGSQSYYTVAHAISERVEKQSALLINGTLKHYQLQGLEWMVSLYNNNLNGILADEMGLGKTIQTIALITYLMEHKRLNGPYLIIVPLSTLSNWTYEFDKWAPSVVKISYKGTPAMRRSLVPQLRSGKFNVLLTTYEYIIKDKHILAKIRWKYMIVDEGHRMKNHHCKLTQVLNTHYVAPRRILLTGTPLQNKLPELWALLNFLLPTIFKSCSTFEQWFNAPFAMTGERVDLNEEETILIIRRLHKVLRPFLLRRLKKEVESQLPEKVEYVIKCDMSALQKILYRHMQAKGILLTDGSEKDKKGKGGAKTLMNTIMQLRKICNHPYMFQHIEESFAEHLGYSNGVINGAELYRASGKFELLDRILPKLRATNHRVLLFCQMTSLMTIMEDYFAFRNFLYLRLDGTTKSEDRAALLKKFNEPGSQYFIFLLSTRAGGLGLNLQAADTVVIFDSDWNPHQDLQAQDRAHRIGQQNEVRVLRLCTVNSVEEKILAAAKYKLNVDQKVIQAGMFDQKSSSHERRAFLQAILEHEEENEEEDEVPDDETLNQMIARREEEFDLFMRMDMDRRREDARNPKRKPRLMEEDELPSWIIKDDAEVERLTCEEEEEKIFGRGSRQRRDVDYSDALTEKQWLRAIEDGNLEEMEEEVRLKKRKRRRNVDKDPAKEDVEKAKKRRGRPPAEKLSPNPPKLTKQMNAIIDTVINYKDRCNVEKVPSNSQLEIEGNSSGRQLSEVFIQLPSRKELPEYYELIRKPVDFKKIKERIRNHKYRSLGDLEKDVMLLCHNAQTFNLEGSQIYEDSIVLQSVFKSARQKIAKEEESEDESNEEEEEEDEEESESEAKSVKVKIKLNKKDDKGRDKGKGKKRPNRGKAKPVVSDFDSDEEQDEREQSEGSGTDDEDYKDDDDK

[5] = FL-SMARCA4 IC>50, Table 3c.2, ATPase assay, enzyme 5 nM, ATP 250 uM, chicken mononucleosome 10 nM, 30 min preincubation
[6] = Table 3d.1, read-out: FL-SMARCA2 IC>50

FL-SMARCA4, sequence (P51532 whole entry): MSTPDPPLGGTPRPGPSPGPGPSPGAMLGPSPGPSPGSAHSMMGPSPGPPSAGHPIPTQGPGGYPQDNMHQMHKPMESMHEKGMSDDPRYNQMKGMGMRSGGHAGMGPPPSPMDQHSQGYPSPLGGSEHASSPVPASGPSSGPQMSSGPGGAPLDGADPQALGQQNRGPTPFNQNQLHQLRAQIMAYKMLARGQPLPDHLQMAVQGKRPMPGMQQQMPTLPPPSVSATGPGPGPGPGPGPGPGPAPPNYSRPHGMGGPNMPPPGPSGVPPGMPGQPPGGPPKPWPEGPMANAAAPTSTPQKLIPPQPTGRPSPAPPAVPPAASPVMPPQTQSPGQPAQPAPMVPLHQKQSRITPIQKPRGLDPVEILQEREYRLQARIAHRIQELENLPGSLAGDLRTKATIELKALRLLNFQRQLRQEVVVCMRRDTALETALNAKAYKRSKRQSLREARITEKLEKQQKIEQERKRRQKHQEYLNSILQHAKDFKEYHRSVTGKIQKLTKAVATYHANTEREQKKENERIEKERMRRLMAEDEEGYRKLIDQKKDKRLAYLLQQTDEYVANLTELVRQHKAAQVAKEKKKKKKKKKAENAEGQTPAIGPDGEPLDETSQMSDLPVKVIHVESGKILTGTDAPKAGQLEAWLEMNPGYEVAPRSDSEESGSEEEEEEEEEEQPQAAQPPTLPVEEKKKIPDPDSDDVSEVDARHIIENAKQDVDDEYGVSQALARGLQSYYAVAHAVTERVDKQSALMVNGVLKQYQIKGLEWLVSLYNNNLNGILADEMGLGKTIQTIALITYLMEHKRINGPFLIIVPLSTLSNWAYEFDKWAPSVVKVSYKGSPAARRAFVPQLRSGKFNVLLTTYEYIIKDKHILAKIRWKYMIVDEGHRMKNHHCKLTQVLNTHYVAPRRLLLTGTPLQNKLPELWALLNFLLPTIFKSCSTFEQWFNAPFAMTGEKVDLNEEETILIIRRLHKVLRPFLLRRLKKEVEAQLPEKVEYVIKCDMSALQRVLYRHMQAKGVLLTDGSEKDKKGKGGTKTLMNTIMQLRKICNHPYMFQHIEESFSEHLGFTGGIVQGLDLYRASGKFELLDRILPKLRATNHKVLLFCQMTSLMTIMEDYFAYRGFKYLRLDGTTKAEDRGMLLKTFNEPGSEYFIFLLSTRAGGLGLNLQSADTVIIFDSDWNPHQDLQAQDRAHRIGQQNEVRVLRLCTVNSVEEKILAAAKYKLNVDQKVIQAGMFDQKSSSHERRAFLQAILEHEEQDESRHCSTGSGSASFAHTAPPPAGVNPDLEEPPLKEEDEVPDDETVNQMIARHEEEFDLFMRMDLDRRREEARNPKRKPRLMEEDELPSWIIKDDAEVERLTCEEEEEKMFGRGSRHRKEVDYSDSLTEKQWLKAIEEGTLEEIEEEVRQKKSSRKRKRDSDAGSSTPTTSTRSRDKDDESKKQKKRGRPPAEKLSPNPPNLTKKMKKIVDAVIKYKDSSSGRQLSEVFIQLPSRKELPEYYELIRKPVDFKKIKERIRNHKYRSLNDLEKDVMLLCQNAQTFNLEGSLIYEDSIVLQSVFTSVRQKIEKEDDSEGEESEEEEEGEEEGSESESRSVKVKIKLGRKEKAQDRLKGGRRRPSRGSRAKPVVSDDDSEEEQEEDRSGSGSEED

Structure (SMILES)	IC50 [1, 5]	IC50 [2]	IC50 [3]	IC50 ([4]; Table 3c.1)	IC50 ([1]; FL-SMARCA4 IC50)	IC50 [4, 6]
O=C(Nc1cc(F)c(=O)n(CC(F)F)c1)c1cc(C#Cc2cccc(Cl)c2)c(Cl)s1 [Compound 56c]	1040 nM	4400 nM	9020 nM	297 nM	–	–
O=C(Nc1cc(F)c(=O)n(CC(F)F)c1)c1cc(C#Cc2cn3c(n2)COCC3)c(Cl)s1 [Compound 90d]	–	> 10000 nM	> 10000 nM	–	2710 nM	1390 nM
CC1(C)CC(C#Cc2cc(C(=O)Nc3cc(F)c(=O)n(CC(F)F)c3)sc2Cl)CC(C)(C)N1 [Compound 121d]	–	5020 nM	7380 nM	–	17300 nM	16800 nM
O=C(Nc1cc(F)c(=O)n(CC(F)F)c1)c1cc(C#Cc2ccc3ccnn3c2)c(Cl)s1 [Compound 122d]	–	8440 nM	> 10000 nM	–	835 nM	253 nM
Cn1cnc(C#Cc2cc(C(=O)Nc3cc(F)c(=O)n(CC(F)F)c3)sc2Cl)c1 [Compound 60c]	492 nM	> 10000 nM	> 10000 nM	251 nM	–	–
CC(N)C#Cc1sc(C(=O)Nc2cc(F)c(=O)n(CC(F)F)c2)cc1Cl (centres unmarked) [Compound 131d]	–	> 10000 nM	> 10000 nM	–	> 50000 nM	> 50000 nM
O=C(Nc1cc(F)c(=O)n(CC(F)F)c1)c1cc(C#CC2CCNC2)c(Cl)s1 (centres unmarked) [Compound 106d]	–	> 10000 nM	> 10000 nM	–	5630 nM	2180 nM
N#Cc1cc(C(=O)Nc2cc(O)c(=O)n(CC(F)F)c2)sc1C(F)(F)F [Compound 88d]	–	> 10000 nM	> 10000 nM	–	3970 nM	576 nM
CC(C)(F)c1sc(C(=O)Nc2cc(F)c(=O)n(CC(F)F)c2)cc1C#N [Compound 84d]	–	> 10000 nM	> 10000 nM	–	> 50000 nM	8580 nM
O=C(Nc1cc(F)c(=O)n(CC(F)F)c1)c1cc(C#Cc2ccc3nncn3c2)c(Cl)s1 [Compound 91d]	–	> 10000 nM	> 10000 nM	–	69.8 nM	22.9 nM

The next molecules have a lower IC50 [2] than those just listed; values first:

IC50 [1, 5]	IC50 [2]	IC50 [3]	IC50 ([4]; Table 3c.1)	IC50 ([1]; FL-SMARCA4 IC50)	IC50 [4, 6]	Structure (SMILES)
232 nM	4260 nM	> 10000 nM	98.1 nM	–	–	O=C(Nc1ccc(=O)n(CC(F)F)c1)c1cc(F)c(Cl)s1 [Compound 45c]
494 nM	3980 nM	> 10000 nM	161 nM	–	–	O=C(Nc1cc(F)c(=O)n(CC(F)F)c1)c1cc(C#CC2COC2)c(C(F)F)s1 [Compound 80c]
–	3930 nM	> 10000 nM	–	147 nM	43.1 nM	Cn1cc(C#Cc2cc(C(=O)Nc3cc(C#N)c(=O)n(CC(F)F)c3)sc2Cl)cn1 [Compound 93d]
269 nM	3780 nM	> 10000 nM	77.8 nM	–	–	O=C(Nc1cc(F)c(=O)n(CC(F)F)c1)c1cc(C#Cc2cccnn2)c(Cl)s1 [Compound 55c]
119 nM	3210 nM	4650 nM	49.9 nM	–	–	O=C1Cc2c(C#Cc3cc(C(=O)Nc4cc(F)c(=O)n(CC(F)F)c4)sc3Cl)cccc2N1 [Compound 142c]
–	2730 nM	> 10000 nM	–	372 nM	112 nM	O=C(Nc1cc(F)c(=O)n(CC(F)F)c1)c1cc(C#CC2COCCO2)c(Cl)s1 (centres unmarked) [Compound 114d]
178 nM	1500 nM	> 10000 nM	44.7 nM	–	–	O=C(Nc1cc(F)c(=O)n(CC(F)F)c1)c1cc(C#CC2CCOC2)c(Cl)s1 (centres unmarked) [Compound 58c]
177 nM	1410 nM	> 10000 nM	65 nM	–	–	O=C(Nc1cc(F)c(=O)n(CC(F)F)c1)c1cc(Cl)c(Cl)s1 [Compound 47c]
79.7 nM	1370 nM	> 10000 nM	12.7 nM	–	–	N#Cc1sc(C(=O)Nc2cc(F)c(=O)n(CC(F)F)c2)cc1C#CC1COC1 [Compound 177c]
143 nM	1290 nM	> 10000 nM	56.8 nM	–	–	O=C(Nc1cc(F)c(=O)n(CC(F)F)c1)c1cc(C#C[C@@H]2CCOC2)c(Cl)s1 [Compound 79c]
